This is an account of results in patent US20110118298A1, “COMPOSITIONS, KITS, AND METHODS FOR IDENTIFICATION, ASSESSMENT, PREVENTION, AND THERAPY OF CANCER” (INFINITY PHARMACEUTICALS, INC., priority 2009, published 2011).

For orientation: GI50 means the concentration that inhibits growth by half.

In test [1] the test system is MAPK pathway (p-bRAF, p-MEK), cleaved caspase 3 in Colo320HSR xenograft. Nature of the test: Pharmacodynamic analysis after a single dose, wild-type xenograft. Type of test: in vivo. As to conditions: single 100 mpk dose of IPI-493, Colo320HSR; 100 mg/kg. The protocol: (§1) To further investigate a potential correlation between the effect of IPI-493 on molecular components of the RAS-RAF-ERK pathway and efficacy, pharmacodynamic analysis was performed on mutant bRAF (Colo205, Colo201) and wild-type (Colo320HSR) xenograft models after a single 100 mpk dose. […] Moreover, when p-MEK activity was assessed for all the CRC xengrafts, there was a clear delineation of sensitivity between mutant and wild type models, further supporting the hypothesis that MAPK pathway activity can be a surrogate for IPI-493 efficacy. […] Altogether, these provide rationale for a clinical path in this disease.

Test [2] deals with MAPK pathway (p-bRAF, p-MEK), cleaved caspase 3 in Colo205, Colo201 xenografts. The experiment in a line: Pharmacodynamic analysis after a single dose, mutant xenografts. It is filed as in vivo. The conditions noted are these: 100 mg/kg. The protocol:
as §1

For another test, the system named is H3122 cells. Nature of the test: Growth inhibition, Cell Titer Glo, 72 h. It is filed as cell-based. The conditions noted are these: Homo sapiens, NCI-H3122, read-out: Wt H3122 (GI50, nM). On the technique in general: Cellular ATP, detected with luciferase, serves as a proxy for viable cell number.
Another test relates to EML4-ALK. The experiment in a line: H3122 xenograft, PD time course by ALK specific ELISA. Type of test: in vivo, nude mice. As to conditions: single injection of IPI-504 (100 mg/kg), tumors. The protocol:
FIGS. 12A-12B depict a PD time course after IPI-504 treatment. After a single injection of 100 mg/kg IPI-504 tumors were collected at various times and ALK (FIG. 12A) and cleaved PARP (FIG. 12B) levels were monitored using ELISA and immunoblotting respectively.
Consistent with this, the responses to Hsp90 inhibitors in the clinic have so far mostly consisted of induction of stable disease. […] H3122 cells were injected into the flanks of nude mice and animals were treated with 75 mg/kg of IPI-504 twice weekly. […] To confirm degradation of EML4-ALK within these tumors, a separate arm was included in the study where tumors were harvested at different time points after a single injection of IPI-504 and the abundance of the fusion protein over time was monitored using an ALK specific ELISA (FIG. 12A). […] The depletion of EML4-ALK coincides with the appearance of PARP cleavage, an indication of caspase 3 activation and the induction of apoptosis (FIG. 12B).
On the technique in general: An ELISA detects its analyte on a solid surface through an enzyme-linked reagent.

Test [3] has as its system non-small cell lung cancer (NSCLC). The experiment in a line: Phase II study of IPI-504 monotherapy in advanced NSCLC after EGFR TKI therapy: response and PFS. Type of test: in vivo, human. From the text:
Patients with advanced NSCLC, prior treatment with EGFR TKIs, and tumor tissue available for molecular genotyping were enrolled in this prospective, non-randomized, multicenter, phase II study of IPI-504 monotherapy. The primary outcome was objective response rate. Secondary aims included safety, progression-free survival (PFS), and analysis of activity by molecular subtypes.
Each genotype-defined arm of the trial (mutant EGFR cohort or wild-type EGFR cohort) functioned as a Simon two-stage study with planned interim evaluation after 10 patients and expanded enrollment of an additional 19 patients (a total of 29 patients) if there was at least one patient with a complete response (CR), partial response (PR) or stable disease (SD) lasting 3 months. As pre-defined EGFR genotype was not a requirement at study entry, the trial remained open until both cohorts fully enrolled, which led to over-enrollment of the wild-type arm. Secondary aims included describing the safety and progression-free survival (PFS) of the regimen, and examining molecular markers associated with response.
Patients were recruited between December 2007 and May 2009 from ten US cancer centers. To be eligible, patients had to have stage IIIB (with pleural effusion), or stage 1V NSCLC with progression on EGFR TKI therapy at some point in their history; adequate baseline renal, hepatic, and bone marrow function; Eastern Cooperative Oncology Group performance status (PS) of 0-2; measurable disease by RECIST 1.0; no active or untreated central nervous system (brain) metastases; no significant cardiac conduction abnormalities; no ongoing keratoconjunctivitis; and either previously defined EGFR genotype or sufficient tumor tissue to undergo genotype assessment, for example, EGFR mutation analysis (EGFR status not required for study entry) (Therasse, P. et al. (2000) J Natl Cancer Inst 92, 205-216; Oken, M. M. et al. (1982) Am J Clin Oncol. 5:649-655). Patients had experienced prior EGFR TKI therapy and there was no limit on prior therapies. All patients signed a written informed consent and the study was monitored by all local institutional review boards. Funding for the trial was provided by Infinity Pharmaceuticals, Inc.
Treatment consisted of a 30-minute infusion of intravenous IPI-504 on days 1, 4, 8 and 11 of a 21-day cycle. Therapy continued until progressive disease (PD), intolerable side effects, or elective withdrawal. A total of 76 patients were enrolled. The starting dose was 400 mg/m^2 for 75 patients. In April 2009, the dose for patients who were on study (19 patients) was lowered to 225 mg/m^2, due to hepatotoxicities observed at the 400 mg/m^2 dose in a separate trial of IPI-504 in patients with gastrointestinal stromal tumors (GIST) (Demetri G. D. et al. Final results from a phase III study of IPI-504 (retaspimycin hydrochloride) versus placebo in patients with gastrointestinal stromal tumors (GIST) following failure of kinase inhibitor therapies. Paper presented at: Gastrointestinal Cancers Symposium; Jan. 22-24, 2010, 2010; Orlando, Fla.), and the last enrolled patient started at a dose of 225 mg/m^2.
All patients were assessed for safety by history, physical examination, blood chemistries, liver function tests and blood counts, at baseline and prior to each infusion. Amylase and lipase were assessed if there were symptoms of pancreatitis. Adverse events were graded using the NCl common toxicity criteria version 3.0 (NCl. Common terminology criteria for adverse events (CTCAE) version 3.0 Aug. 9, 2006). Slit lamp eye examinations were performed during screening and electrocardiograms were obtained during screening and before and after the first infusion, to evaluate for keratitis and QTc prolongation, respectively. Radiographic evaluation of tumor response by CT-scan was performed after every 2 cycles. All films were reviewed and independently assessed by a central radiology core laboratory. […]

Entries after “also recorded” stand apart in the source; their conditions may differ. Structures can show the parent of a compound that is named as a salt. Marks after values point to notes of the source that are not given here.

Turning to `CO[C@H]1/C=C\C=C(/C)C(=O)NC2=CC(=O)C(N)=C(C[C@@H](C)C[C@H](OC)[C@H](O)[C@@H](C)/C=C(\C)[C@@H]1OC(N)=O)C2=O` [IPI-493, 17-AG], the “p-bRAF, p-MEK, cleaved caspase 3 in wild type model” value in test [1] is reported as “little effect of IPI-493 administration; also recorded: Minimal changes”. The “phosphorylated bRAF and MEK (p-bRAF, p-MEK)” value in test [2] (single 100 mpk dose of IPI-493, ~24 hr post dose) is “downregulation of the activity of both bRAF and MEK; also recorded: time dependent decrease in phosphorylated BRAF; also recorded: time dependent decrease in phosphorylated MEK”. For the same compound, in test [2] (single 100 mpk dose of IPI-493), the “cleaved caspase 3” value is “time dependent increase in cleaved caspase 3 activity”.
In the case of `C=CCNc1c(O)cc2c(O)c1C[C@@H](C)C[C@H](OC)[C@H](O)[C@@H](C)/C=C(\C)[C@H](OC(N)=O)[C@@H](OC)/C=C\C=C(/C)C(=O)N2` [IPI-504, retaspimycin hydrochloride], the GI50 with H3122 cells came out at 22 nM. Further, in the test on EML4-ALK, the “time ALK fusion protein is depleted after a single injection” value is “more than 48 h”. Besides, in test [3] (3 patients with ALK rearrangements), the “time on IPI-504 without progression or death” value is reported as “approximately 7 months”. The “RECIST Stable Disease or better for at least 3 months” value was 3 (25) n [%] in test [3] (ALK No Rearrangement Detected); 3 (100) n [%] in test [3] (ALK Rearrangement Detected); 6 (21) n [%] in test [3] (EGFR Mutant); 10 (25) n [%] in test [3] (EGFR Wild Type); 5 (42) n [%] in test [3] (KRAS Mutant); 4 (15) n [%] in test [3] (KRAS Wild Type). For the same compound, the “RECIST Stable Disease or better for at least 3 months” value in test [3] (Total, 76 patients) is 18 (24) n [%]. Also, the “Objective Response Rate (All PRs)” value in test [3] (ALK No Rearrangement Detected, 12 patients) is 1 (8) n [%]; in test [3] (ALK Rearrangement Detected, 3 patients), 2 (67) n [%]; in test [3] (EGFR Mutant, 28 patients), 1 (4) n [%]; in test [3] (EGFR Wild Type, 40 patients) it was 4 (10) n [%]; in test [3] (KRAS Mutant, 12 patients) it was 0 (0) n [%]; in test [3] (KRAS Wild Type, 26 patients), 3 (12)* n [%]. Moreover, the “Objective Response Rate (All PRs)” value in test [3] (Total, 76 patients) was 5 (7) n [%]. The “Median PFS” value turned out to be 2.43 in test [3] (ALK No Rearrangement Detected, no unit in table); 2.76 in test [3] (EGFR Mutant, no unit in table); 2.86 in test [3] (EGFR Wild Type, no unit in table); 3.91 in test [3] (KRAS Mutant, no unit in table); 2.86 in test [3] (KRAS Wild Type, no unit in table); 2.86 in test [3] (Total, no unit in table, months). Also, the “Median PFS” value in test [3] (all patients) came to 2.86 months. The response rate is listed as 10% in test [3] (EGFR wild-type patients), 12% in test [3] (KRAS wild-type patients), 4% in test [3] (patients with EGFR mutations) and 67% in test [3] (patients with an ALK rearrangement). Moreover, the “patients with partial response” value in test [3] (of the 3 patients with an ALK gene rearrangement) is on record as 2 patients. In addition, the overall response rate in test [3] (overall study population) is given as 7%. Also, the “reduction in tumor size” value in test [3] (third patient with ALK rearrangement (stable disease)) was 24%.
